From article PMC5218480 (PLoS ONE, 2017)

System: MV-4-11 cells
Test: Gene expression microarray analysis (Affymetrix PrimeView) and GSEA
Assay type: cell-based, human
Design: RFU PODN (11730768_x_at) / Fold change /veh PODN (11730768_x_at) / RFU LINC00158 (11744669_a_at) / Fold change /veh LINC00158 (11744669_a_at) / RFU DUSP10 (11751237_a_at) / Fold change /veh DUSP10 (11751237_a_at) / RFU ID3 (11757404_x_at) / Fold change /veh ID3 (11757404_x_at) / RFU PLEKHG5 (11737974_s_at) / Fold change /veh PLEKHG5 (11737974_s_at) / RFU LRRC4B (11730491_at) / Fold change /veh LRRC4B (11730491_at) / RFU GIMAP4 (11747438_a_at) / Fold change /veh GIMAP4 (11747438_a_at) / RFU KRT8 (11758183_x_at) / Fold change /veh KRT8 (11758183_x_at) / RFU CNN1 (11734310_a_at) / Fold change /veh CNN1 (11734310_a_at) / RFU VPS37D (11726825_at) / Fold change /veh VPS37D (11726825_at) / RFU C10orf10 (11716522_x_at) / Fold change /veh C10orf10 (11716522_x_at) / RFU KIR2DL2 /// KIR2DL4 /// KIR2DL5A /// KIR2DL5B /// KIR2DS1 /// KIR2DS2 /// KIR2DS3 /// KIR2DS4 /// KIR3DL3 /// KIR3DL3 /// KIR3DS1 (11738374_at) / Fold change /veh KIR2DL2 /// KIR2DL4 /// KIR2DL5A /// KIR2DL5B /// KIR2DS1 /// KIR2DS2 /// KIR2DS3 /// KIR2DS4 /// KIR3DL3 /// KIR3DL3 /// KIR3DS1 (11738374_at) / RFU C1QL1 (11718748_at) / Fold change /veh C1QL1 (11718748_at) / RFU TMPRSS4 (11747572_a_at) / Fold change /veh TMPRSS4 (11747572_a_at) / RFU HAMP (11756126_x_at) / Fold change /veh HAMP (11756126_x_at) / RFU RNFT2 (11725882_a_at) / Fold change /veh RNFT2 (11725882_a_at) / RFU NR4A2 (11747474_a_at) / Fold change /veh NR4A2 (11747474_a_at) / RFU ABCC12 (11746883_a_at) / Fold change /veh ABCC12 (11746883_a_at) / RFU TMEM136 (11760407_x_at) / Fold change /veh TMEM136 (11760407_x_at) / RFU CLDN22 /// WWC2 (11732394_at) / Fold change /veh CLDN22 /// WWC2 (11732394_at) / RFU HLA-DPB1 (11760878_x_at) / Fold change /veh HLA-DPB1 (11760878_x_at) / RFU SPINT1 (11716480_a_at) / Fold change /veh SPINT1 (11716480_a_at) / RFU GAP43 (11754022_s_at) / Fold change /veh GAP43 (11754022_s_at) / RFU A4GNT (11735810_at) / Fold change /veh A4GNT (11735810_at) / RFU PRB3 (11715151_x_at) / Fold change /veh PRB3 (11715151_x_at) / RFU TUBB4B (11761932_at) / Fold change /veh TUBB4B (11761932_at) / RFU CAPN14 (11732068_a_at) / Fold change /veh CAPN14 (11732068_a_at) / RFU TMCC2 (11721928_a_at) / Fold change /veh TMCC2 (11721928_a_at) / RFU IRGQ (11745062_a_at) / Fold change /veh IRGQ (11745062_a_at) / RFU FAM174B (11720279_a_at) / Fold change /veh FAM174B (11720279_a_at) / RFU TMPRSS4 (11748680_a_at) / Fold change /veh TMPRSS4 (11748680_a_at) / RFU FAM212B (11763350_a_at) / Fold change /veh FAM212B (11763350_a_at) / RFU PLEKHG5 (11743358_a_at) / Fold change /veh PLEKHG5 (11743358_a_at) / RFU ZSCAN30 (11745921_a_at) / Fold change /veh ZSCAN30 (11745921_a_at) / RFU CMKLR1 (11741424_a_at) / Fold change /veh CMKLR1 (11741424_a_at) / RFU LOC101060620 /// MAPK8IP1 (11723275_at) / Fold change /veh LOC101060620 /// MAPK8IP1 (11723275_at) / RFU SPTSSB (11747773_x_at) / Fold change /veh SPTSSB (11747773_x_at) / RFU PRSS12 (11739890_at) / Fold change /veh PRSS12 (11739890_at) / RFU BIN1 (11741810_x_at) / Fold change /veh BIN1 (11741810_x_at) / RFU WNT11 (11732464_a_at) / Fold change /veh WNT11 (11732464_a_at) / RFU C10orf10 (11716521_a_at) / Fold change /veh C10orf10 (11716521_a_at) / RFU C5orf56 (11738089_at) / Fold change /veh C5orf56 (11738089_at) / RFU CYB561 (11721691_x_at) / Fold change /veh CYB561 (11721691_x_at) / RFU ANKRD19P (11752326_a_at) / Fold change /veh ANKRD19P (11752326_a_at) / RFU OR2T12 /// OR2T33 /// OR2T8 (11738714_s_at) / Fold change /veh OR2T12 /// OR2T33 /// OR2T8 (11738714_s_at) / RFU VCAN (11748164_a_at) / Fold change /veh VCAN (11748164_a_at) / RFU JSRP1 (11732532_at) / Fold change /veh JSRP1 (11732532_at) / RFU KRTAP10-11 (11738290_x_at) / Fold change /veh KRTAP10-11 (11738290_x_at) / RFU MYO3A (11730013_a_at) / Fold change /veh MYO3A (11730013_a_at) / RFU EBF3 (11725865_a_at) / Fold change /veh EBF3 (11725865_a_at) / RFU CAMK2N1 (11719241_x_at) / Fold change /veh CAMK2N1 (11719241_x_at) / RFU C5orf56 (11738088_a_at) / Fold change /veh C5orf56 (11738088_a_at) / RFU OLFML3 (11715873_a_at) / Fold change /veh OLFML3 (11715873_a_at) / RFU LOC100653217 /// NTM (11731650_a_at) / Fold change /veh LOC100653217 /// NTM (11731650_a_at) / RFU MAPK11 (11762145_a_at) / Fold change /veh MAPK11 (11762145_a_at) / RFU FIZ1 (11724087_x_at) / Fold change /veh FIZ1 (11724087_x_at) / RFU OASL (11726364_x_at) / Fold change /veh OASL (11726364_x_at) / RFU SOX15 (11748057_x_at) / Fold change /veh SOX15 (11748057_x_at) / RFU CD79A (11719716_a_at) / Fold change /veh CD79A (11719716_a_at) / RFU HIST1H1D (11736915_at) / Fold change /veh HIST1H1D (11736915_at) / RFU CASKIN2 (11723855_a_at) / Fold change /veh CASKIN2 (11723855_a_at) / RFU LOC730098 (11760151_x_at) / Fold change /veh LOC730098 (11760151_x_at) / RFU OR4N2 (11742367_at) / Fold change /veh OR4N2 (11742367_at) / RFU PRRT2 (11749266_a_at) / Fold change /veh PRRT2 (11749266_a_at) / RFU SNX32 (11753110_a_at) / Fold change /veh SNX32 (11753110_a_at) / RFU CDHR5 (11726645_a_at) / Fold change /veh CDHR5 (11726645_a_at) / RFU RCAN1 (11760418_a_at) / Fold change /veh RCAN1 (11760418_a_at) / RFU FAM167A (11723789_a_at) / Fold change /veh FAM167A (11723789_a_at) / RFU FAM26E (11764081_at) / Fold change /veh FAM26E (11764081_at) / RFU ISYNA1 (11749810_s_at) / Fold change /veh ISYNA1 (11749810_s_at) / RFU ACY1 (11761880_at) / Fold change /veh ACY1 (11761880_at) / RFU 11764098_at / Fold change /veh 11764098_at / RFU SAMD14 (11745864_x_at) / Fold change /veh SAMD14 (11745864_x_at) / RFU NPB (11741838_a_at) / Fold change /veh NPB (11741838_a_at) / RFU TMPRSS6 (11731388_a_at) / Fold change /veh TMPRSS6 (11731388_a_at) / RFU KRTAP10-2 (11738614_at) / Fold change /veh KRTAP10-2 (11738614_at) / RFU ARHGAP8 /// PRR5-ARHGAP8 (11727945_x_at) / Fold change /veh ARHGAP8 /// PRR5-ARHGAP8 (11727945_x_at) / RFU KRTAP5-7 /// NADSYN1 (11734609_at) / Fold change /veh KRTAP5-7 /// NADSYN1 (11734609_at) / RFU RASL12 (11751679_a_at) / Fold change /veh RASL12 (11751679_a_at) / RFU CDKN2B (11736163_a_at) / Fold change /veh CDKN2B (11736163_a_at) / RFU PRF1 (11729649_at) / Fold change /veh PRF1 (11729649_at) / RFU, ZNF638 /// ZNF638-IT1 / Fold change vs veh, ZNF638 /// ZNF638-IT1 / RFU, PANK3 / Fold change vs veh, PANK3 / RFU, SH3YL1 / Fold change vs veh, SH3YL1 / RFU, ZEB2 / Fold change vs veh, ZEB2 / RFU, NRIP1 / Fold change vs veh, NRIP1 / RFU, PTTG1IP / Fold change vs veh, PTTG1IP / RFU, CAPN2 / Fold change vs veh, CAPN2 / RFU, MED14 / Fold change vs veh, MED14 / RFU, SNORA58 / Fold change vs veh, SNORA58 / RFU, C1orf63 / Fold change vs veh, C1orf63 / RFU, LRRFIP1 / Fold change vs veh, LRRFIP1 / RFU, NDUFAF7 / Fold change vs veh, NDUFAF7 / RFU, SLC12A2 / Fold change vs veh, SLC12A2 / RFU, IBTK / Fold change vs veh, IBTK / RFU, ESF1 / Fold change vs veh, ESF1 / Fold change vs veh, TMEM50B / RFU, TAOK1 / Fold change vs veh, TAOK1 / RFU, ACBD3 / Fold change vs veh, ACBD3 / RFU, TMA16 / Fold change vs veh, TMA16 / RFU, RWDD3 / Fold change vs veh, RWDD3 / RFU, BCAT1 / Fold change vs veh, BCAT1 / RFU, EDEM3 / Fold change vs veh, EDEM3 / RFU, TMEM33 / Fold change vs veh, TMEM33 / RFU, WDR75 / Fold change vs veh, WDR75 / RFU, AHCTF1 / Fold change vs veh, AHCTF1 / RFU, TFRC / Fold change vs veh, TFRC / RFU, ZDHHC17 / Fold change vs veh, ZDHHC17 / RFU, NOM1 / Fold change vs veh, NOM1 / RFU, ARL8B / Fold change vs veh, ARL8B / RFU, ZBTB11 / Fold change vs veh, ZBTB11 / RFU, TAMM41 / Fold change vs veh, TAMM41 / RFU, KIAA1704 /// LOC100996395 / Fold change vs veh, KIAA1704 /// LOC100996395 / RFU, ING1 / Fold change vs veh, ING1 / RFU, TRMT61B / Fold change vs veh, TRMT61B / RFU, FUBP3 / Fold change vs veh, FUBP3 / RFU, TP53 / Fold change vs veh, TP53 / RFU, TNKS2 / Fold change vs veh, TNKS2 / RFU, ZFP14 / Fold change vs veh, ZFP14 / RFU, ACTR2 / Fold change vs veh, ACTR2 / RFU, PPP3R1 / Fold change vs veh, PPP3R1 / RFU, PIK3R1 / Fold change vs veh, PIK3R1 / RFU, HNRNPA1 / Fold change vs veh, HNRNPA1 / RFU, RNF170 / Fold change vs veh, RNF170 / RFU, ZNF28 / Fold change vs veh, ZNF28 / RFU, RNGTT / Fold change vs veh, RNGTT / RFU, OGT / Fold change vs veh, OGT / RFU, BRD1 / Fold change vs veh, BRD1 / RFU, MARS / Fold change vs veh, MARS / RFU, ZNF655 / Fold change vs veh, ZNF655 / RFU, FAHD1 / Fold change vs veh, FAHD1 / RFU, BDP1 / Fold change vs veh, BDP1 / RFU, LRRCC1 / Fold change vs veh, LRRCC1 / RFU, ARID1A / Fold change vs veh, ARID1A / RFU, ZNF146 / Fold change vs veh, ZNF146 / RFU, ZNF330 / Fold change vs veh, ZNF330 / RFU, GPN3 / Fold change vs veh, GPN3 / RFU, C9orf123 / Fold change vs veh, C9orf123 / RFU, N4BP2L2 / Fold change vs veh, N4BP2L2 / RFU, ARFIP1 / Fold change vs veh, ARFIP1 / RFU, FAM179B / Fold change vs veh, FAM179B / RFU, BCL10 / Fold change vs veh, BCL10 / RFU, UHRF1BP1L / Fold change vs veh, UHRF1BP1L / RFU, BET1 / Fold change vs veh, BET1 / RFU, CNOT2 / Fold change vs veh, CNOT2 / RFU, ZNF268 / Fold change vs veh, ZNF268 / Fold change vs veh, ZNF507 / RFU, DGCR2 / Fold change vs veh, DGCR2 / RFU, WDSUB1 / Fold change vs veh, WDSUB1 / Fold change vs veh, HSP90B1 /// MIR3652 / RFU, ADSS / Fold change vs veh, ADSS / RFU, GK / Fold change vs veh, GK / RFU, ZNF148 / Fold change vs veh, ZNF148 / RFU, TAF9 / Fold change vs veh, TAF9 / RFU, SLC1A5 / Fold change vs veh, SLC1A5 / RFU, SLMO2 / Fold change vs veh, SLMO2 / RFU, ABCC4 / Fold change vs veh, ABCC4 / RFU, LOC101060439 /// RAP1B / Fold change vs veh, LOC101060439 /// RAP1B / RFU, RFX7 / Fold change vs veh, RFX7 / RFU, GTPBP10 / Fold change vs veh, GTPBP10 / RFU, CNEP1R1 / Fold change vs veh, CNEP1R1 / RFU, BIVM-ERCC5 /// ERCC5 / Fold change vs veh, BIVM-ERCC5 /// ERCC5 / RFU, ILF3 / Fold change vs veh, ILF3 / RFU 11762660_at / Fold change /veh 11762660_at / RFU VCAN (11757783_s_at) / Fold change /veh VCAN (11757783_s_at) / RFU DDX43 (11728927_at) / Fold change /veh DDX43 (11728927_at) / RFU KRT8 (11758188_x_at) / Fold change /veh KRT8 (11758188_x_at) / RFU NKD1 (11759106_at) / Fold change /veh NKD1 (11759106_at) / RFU SRD5A1 (11742802_a_at) / Fold change /veh SRD5A1 (11742802_a_at) / RFU TPSAB1 /// TPSB2 (11721975_s_at) / Fold change /veh TPSAB1 /// TPSB2 (11721975_s_at) / RFU GSTM3 (11746129_a_at) / Fold change /veh GSTM3 (11746129_a_at) / RFU IL23R (11737362_x_at) / Fold change /veh IL23R (11737362_x_at) / RFU TMEM51 (11727254_a_at) / Fold change /veh TMEM51 (11727254_a_at) / RFU PIWIL2 (11732686_x_at) / Fold change /veh PIWIL2 (11732686_x_at) / RFU ORM1 (11744905_x_at) / Fold change /veh ORM1 (11744905_x_at) / RFU CCDC152 (11743942_at) / Fold change /veh CCDC152 (11743942_at) / RFU ECM1 (11717891_a_at) / Fold change /veh ECM1 (11717891_a_at) / RFU IL23R (11748794_a_at) / Fold change /veh IL23R (11748794_a_at) / RFU TNFAIP8L3 (11732012_x_at) / Fold change /veh TNFAIP8L3 (11732012_x_at) / RFU MBOAT4 (11741988_at) / Fold change /veh MBOAT4 (11741988_at) / RFU 11764193_at / Fold change /veh 11764193_at / RFU TMEM53 (11763286_at) / Fold change /veh TMEM53 (11763286_at) / RFU MAGEB2 (11727129_at) / Fold change /veh MAGEB2 (11727129_at) / RFU TMEM200A (11744735_a_at) / Fold change /veh TMEM200A (11744735_a_at) / RFU CCDC152 (11751479_a_at) / Fold change /veh CCDC152 (11751479_a_at) / RFU FAM211A (11726209_a_at) / Fold change /veh FAM211A (11726209_a_at) / RFU RGS16 (11746705_a_at) / Fold change /veh RGS16 (11746705_a_at) / RFU VCAN (11755009_s_at) / Fold change /veh VCAN (11755009_s_at) / RFU RHOB (11743442_s_at) / Fold change /veh RHOB (11743442_s_at) / RFU RGS16 (11720943_a_at) / Fold change /veh RGS16 (11720943_a_at) / RFU RGS16 (11720944_at) / Fold change /veh RGS16 (11720944_at) / RFU, VPS4B / Fold change vs veh, VPS4B / RFU, CREB1 / Fold change vs veh, CREB1 / RFU, DNAJC13 / Fold change vs veh, DNAJC13 / RFU, GNAQ / Fold change vs veh, GNAQ / RFU, CDK5R1 / Fold change vs veh, CDK5R1 / RFU, ZRANB3 / Fold change vs veh, ZRANB3 / RFU, CUL4A / Fold change vs veh, CUL4A / RFU, CCNY / Fold change vs veh, CCNY / RFU, UFL1 / Fold change vs veh, UFL1 / RFU, COG3 / Fold change vs veh, COG3 / RFU, DIAPH2 / Fold change vs veh, DIAPH2 / RFU, SKA2 / Fold change vs veh, SKA2 / RFU, AFF3 / Fold change vs veh, AFF3 / RFU, LMF1 / Fold change vs veh, LMF1 / RFU, IPO11 / Fold change vs veh, IPO11 / RFU, DFFB / Fold change vs veh, DFFB / RFU, FOXP1 / Fold change vs veh, FOXP1 / RFU, CARD8 / Fold change vs veh, CARD8 / RFU, STRN3 / Fold change vs veh, STRN3 / RFU, ADK / Fold change vs veh, ADK / RFU, RASSF2 / Fold change vs veh, RASSF2 / RFU, WIPF1 / Fold change vs veh, WIPF1 / RFU, LARP1B / Fold change vs veh, LARP1B / RFU, RASA1 / Fold change vs veh, RASA1 / RFU, RB1 / Fold change vs veh, RB1 / RFU, PPFIA1 / Fold change vs veh, PPFIA1 / RFU, MAT2A / Fold change vs veh, MAT2A / RFU, CCT5 / Fold change vs veh, CCT5 / RFU, WDR92 / Fold change vs veh, WDR92 / RFU, CUX1 / Fold change vs veh, CUX1 / RFU, TTC7A / Fold change vs veh, TTC7A / RFU, TMEM135 / Fold change vs veh, TMEM135 / RFU, DEPTOR / Fold change vs veh, DEPTOR / RFU, CPM / Fold change vs veh, CPM / RFU, DNAJB6 / Fold change vs veh, DNAJB6 / RFU, CACNA2D3 / Fold change vs veh, CACNA2D3 / RFU, DTX4 / Fold change vs veh, DTX4 / RFU, TFCP2 / Fold change vs veh, TFCP2 / RFU, GMCL1 /// GMCL1P1 / Fold change vs veh, GMCL1 /// GMCL1P1 / RFU, AEBP2 / Fold change vs veh, AEBP2 / RFU, SNHG1 /// SNORD22 /// SNORD25 /// SNORD26 /// SNORD27 /// SNORD28 /// SNORD29 /// SNORD31 / Fold change vs veh, SNHG1 /// SNORD22 /// SNORD25 /// SNORD26 /// SNORD27 /// SNORD28 /// SNORD29 /// SNORD31 / Fold change (Aza/veh), C12orf56 (ProbeSet 11735607_a_at) / Fold change (ACY-1035/veh), C12orf56 (ProbeSet 11735607_a_at) / Fold change (Aza/veh), FGFR1OP (ProbeSet 11751329_s_at) / Fold change (ACY-1035/veh), FGFR1OP (ProbeSet 11751329_s_at) / Fold change (Aza/veh), VPS36 (ProbeSet 11739960_a_at) / Fold change (ACY-1035/veh), VPS36 (ProbeSet 11739960_a_at) / RFU SYPL1 (11715823_x_at) / Fold change /veh SYPL1 (11715823_x_at) / RFU IGFBP7 (11715501_s_at) / Fold change /veh IGFBP7 (11715501_s_at) / RFU REEP3 (11722064_at) / Fold change /veh REEP3 (11722064_at) / RFU IGLL1 (11728026_x_at) / Fold change /veh IGLL1 (11728026_x_at): dose or concentration left out as unconfirmed
Details: MV-4-11 cells, 48 hours

Nc1ccc(-c2cccs2)cc1NC(=O)c1ccc2c(c1)cc(C1CC1)n2CCN1CCOCC1 [ACY-1035]
RFU C10orf10 (11716521_a_at): 34.07 RFU
